Reference: patent US20230176038A1, “Methods for Identifying Modulators of Insect Transient Receptor Potential Channels” (BASF Corporation, priority 2019, published 2023)

Legend:
[1] = test system: Nanchung and Water witch (Nan + Wtrw) complexes; experiment: Calcium mobilization (fluo-4, FLIPR) in CHO-K1 cells co-expressing Nanchung and Water witch; details: for Ca2+ mobilization response: CHO-K1 cells co-expressing Nanchung and Water witch
Description: (§1) DNAs encoding for tagged TRP channels were delivered into CHO-K1 cells using adenoviruses. Adenovirus-mediated gene delivery allowed for expression of the gene of interest, optimize expression levels and stoichiometry of subunits, as well as prevention of possible toxic effects of insect TRP channels by maintaining virus-infected cells at room temperature.
(§2) To test the hypothesis that Water witch may also be involved in the action of PM and AP, Water witch was expressed in CHO-K1 cells either alone or in combination with Nanchung. Given that TRP channels are permeable for Ca2+, cell responces were measured by monitoring Ca2+ mobilization using Ca2+ sensitive fluorescent probe FLUO4.
(§3) Hamster CHO-K1 cells (ATCC ® CCL-61TM) were infected with adenoviruses expressing TRP channels individually or in combinations. The cells were kept overnight at 37° C., followed by 3 days at 25° C. The medium was changed two days after seeding. Calcium mobilization was detected using fluorescent calcium probe fluo-4AM (Life Technologies) and measured by FLIPR-TETRA instrument (Molecular Devices, Sunnyvale, CA). The cells were loaded with 50 µl of Hank’s buffered salt solution (HBSS) containing 4 µM fluo-4AM, 5 mM probenecid, 20 mM CaCl2, and 0.02% pluoronic for 2 hours at 25° C. The dye was then discarded, 50 µl of HBSS were added. The test compounds were dissolved in DMSO and added to the cells in 50 µl HBSS, yielding a final DMSO concentration of 0.2%. Fluorescence was monitored for 10 minutes at 1 second intervals at 470-495 nm/515-575 nm excitation/emission wavelengths. EC50 values were calculated using GraphPad Prism (GraphPad Software).

[2] = test system: parental mammalian cells (CHO-K1); experiment: Calcium mobilization in parental mammalian cells; format: cell-based, hamster; details: prior to infection
[3] = test system: Water witch (Wtrw); experiment: Calcium mobilization in CHO-K1 cells expressing Water witch alone; details: CHO-K1 cells expressing Water witch individually
Description: as §1, §2, §3

[4] = test system: Nanchung (Nan); experiment: Calcium mobilization in CHO-K1 cells expressing Nanchung alone; format: cell-based, Drosophila melanogaster; details: CHO-K1 cells expressing Nanchung individually
[5] = test system: Inactive and Water witch (Iav + Wtrw); experiment: Calcium mobilization in CHO-K1 cells co-expressing Inactive and Water witch; format: cell-based, Drosophila melanogaster
[6] = test system: Nanchung and Inactive (Nan + Iav) complexes; experiment: Calcium mobilization in CHO-K1 cells co-expressing Nanchung and Inactive; format: cell-based, Drosophila melanogaster
[7] = test system: complexes formed by Nanchung protein and Inactive protein; experiment: [3H]-afidopyropen competition binding to membranes of cells co-expressing Nanchung and Inactive; parameters: species or system Drosophila melanogaster; details: membranes from cells co-expressing Nanchung and Inactive
[8] = biological target: complexes formed by Nanchung protein and Water witch protein (Nan + Wtrw) (Drosophila melanogaster, UniProt A0ACM8PYI9); experiment: biochemical; format: binding; details: membranes from cells co-expressing Nanchung and Water witch
[9] = test system: Nanchung (Nan); details: previously shown; cited from earlier work

Sequence of complexes formed by Nanchung protein and Water witch protein (Nan + Wtrw) (Q9VHY7 entry or part of it): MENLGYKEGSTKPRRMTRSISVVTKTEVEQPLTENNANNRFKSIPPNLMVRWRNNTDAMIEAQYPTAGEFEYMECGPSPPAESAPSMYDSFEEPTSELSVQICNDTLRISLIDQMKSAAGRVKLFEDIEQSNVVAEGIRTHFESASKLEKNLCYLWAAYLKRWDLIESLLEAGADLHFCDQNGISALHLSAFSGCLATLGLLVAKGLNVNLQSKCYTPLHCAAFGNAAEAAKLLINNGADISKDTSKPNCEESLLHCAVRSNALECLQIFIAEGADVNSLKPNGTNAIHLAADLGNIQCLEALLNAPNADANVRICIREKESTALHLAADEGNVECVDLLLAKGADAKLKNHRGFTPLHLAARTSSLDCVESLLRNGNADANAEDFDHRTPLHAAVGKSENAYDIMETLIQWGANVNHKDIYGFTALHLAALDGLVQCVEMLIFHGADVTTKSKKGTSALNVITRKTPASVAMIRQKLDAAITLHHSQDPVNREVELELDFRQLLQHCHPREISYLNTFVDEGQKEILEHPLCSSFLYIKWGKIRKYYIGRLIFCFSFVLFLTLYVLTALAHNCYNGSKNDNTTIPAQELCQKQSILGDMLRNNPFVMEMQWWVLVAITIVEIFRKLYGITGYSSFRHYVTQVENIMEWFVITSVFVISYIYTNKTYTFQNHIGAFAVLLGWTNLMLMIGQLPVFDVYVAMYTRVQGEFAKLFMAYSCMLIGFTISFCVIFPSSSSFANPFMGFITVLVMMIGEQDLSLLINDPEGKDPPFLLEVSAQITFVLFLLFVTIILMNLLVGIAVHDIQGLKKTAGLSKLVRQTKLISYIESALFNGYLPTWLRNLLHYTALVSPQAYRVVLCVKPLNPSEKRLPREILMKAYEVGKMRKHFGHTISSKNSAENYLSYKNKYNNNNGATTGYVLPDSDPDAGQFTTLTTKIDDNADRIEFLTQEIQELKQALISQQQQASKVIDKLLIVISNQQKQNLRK
Sequence of complexes formed by Nanchung protein and Water witch protein (Nan + Wtrw) (A0ACM8PYI9 entry or part of it): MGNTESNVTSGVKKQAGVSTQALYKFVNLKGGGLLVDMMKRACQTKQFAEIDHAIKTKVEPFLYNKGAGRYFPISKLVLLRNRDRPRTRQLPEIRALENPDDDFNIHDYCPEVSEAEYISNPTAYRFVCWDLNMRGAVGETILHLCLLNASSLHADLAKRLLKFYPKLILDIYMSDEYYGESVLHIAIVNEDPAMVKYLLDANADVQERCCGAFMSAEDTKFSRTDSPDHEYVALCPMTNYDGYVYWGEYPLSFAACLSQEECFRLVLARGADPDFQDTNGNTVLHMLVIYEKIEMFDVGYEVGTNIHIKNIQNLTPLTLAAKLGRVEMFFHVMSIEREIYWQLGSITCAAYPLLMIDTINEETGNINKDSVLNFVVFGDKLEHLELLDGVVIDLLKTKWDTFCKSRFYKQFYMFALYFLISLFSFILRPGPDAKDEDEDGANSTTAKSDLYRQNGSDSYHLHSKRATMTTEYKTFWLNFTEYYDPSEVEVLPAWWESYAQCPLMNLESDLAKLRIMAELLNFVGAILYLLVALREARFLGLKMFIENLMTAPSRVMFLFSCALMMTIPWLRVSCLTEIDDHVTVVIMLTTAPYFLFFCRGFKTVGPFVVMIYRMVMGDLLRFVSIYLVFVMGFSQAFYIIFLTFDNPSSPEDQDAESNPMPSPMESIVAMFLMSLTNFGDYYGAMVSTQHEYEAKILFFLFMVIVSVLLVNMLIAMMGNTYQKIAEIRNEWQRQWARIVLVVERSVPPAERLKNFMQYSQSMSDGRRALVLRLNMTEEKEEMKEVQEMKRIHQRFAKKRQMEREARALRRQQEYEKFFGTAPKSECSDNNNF

Structure (SMILES)	Ca2+ mobilization response [1]	Ca2+ mobilization response [2]	Ca2+ mobilization response [3]	Ca2+ mobilization response [4]	Ca2+ mobilization response [5]	Ca2+ mobilization response [6]	Inhibition of binding of tritiated afidopyropen [7]	Inhibition of binding of tritiated afidopyropen [8]	Potency and efficacy of activation, Nanchung:Inactive compared with Nanchung:Water witch complexes ([1]; dose response of calcium responses, FIG. 4B)	Response of Nanchung alone to stimulation [9]
NC(=O)c1cnccc1C(F)(F)F [TFNA-AM, 4-trifluoronicotinamide]	without effect	–	–	–	–	–	–	–	–	–
C=CCN=C=S [allyl isothiocyanate]	efficiently activated	not in parental mammalian cells	efficiently activated	nor in cells expressing Nancung (Nan)	activation of Ca2+ mobilization	not responsive	–	–	–	–
O=CC=Cc1ccccc1 [cinnamaldehyde]	efficiently activated	not in parental mammalian cells	efficiently activated	nor in cells expressing Nancung (Nan)	activation of Ca2+ mobilization	not responsive	–	–	–	–
N#CCNC(=O)c1cnccc1C(F)(F)F [flonicamid]	without effect	–	–	–	–	–	–	–	–	–
NC(=O)c1cccnc1 [nicotinamide]	evoked Ca2+ response	not in parental mammalian cells	not in the cells expressing these proteins individually	–	–	evoked Ca2+ response	completely inhibited binding	completely inhibited binding	nearly identical potency and efficacy	–
CC1=NNC(=O)N(/N=C/c2cccnc2)C1 [pymetrozine]	elicited calcium mobilization	–	–	–	–	–	completely inhibited binding	completely inhibited binding	–	does not respond
